Consider one compound from patent US20210000778A1.

The EC50 is the concentration at which the effect is half-maximal. A lower EC50 goes with an effect from little substance.

SMILES strings stand for the structures.

In one series the test system is 22RV1. Nature of the series: In vitro killing of prostate cancer cell lines, CellTiter 96 cell survival. In kind it is cell-based. As to conditions: Homo sapiens, 60 hrs in RPMI with 10% FBS. As for the experimental part: (§1) Cell survival was assayed with CellTiter 96® Aqueous One Solution Cell Proliferation Assay (Promega). EC50 values were calculated.
Another series has as its system DU 145. Described as above. The series is classed as cell-based. As to conditions: Homo sapiens, 60 hrs in RPMI with 10% FBS. As for the experimental part:
as §1

The next series deals with LnCap. Described as above. In kind it is cell-based. The conditions noted are these: Homo sapiens, 60 hrs in RPMI with 10% FBS. As for the experimental part:
as §1

Another series relates to PC-3. The description is as above. In kind it is cell-based. The conditions noted are these: Homo sapiens, 60 hrs in RPMI with 10% FBS. As for the experimental part: as §1
For another series, the system named is RWPI-1. The series is described as above. The series is classed as cell-based. The conditions noted are these: 60 hrs in RPMI with 10% FBS. As for the experimental part: as §1
Series [1] has as its system androgen-resistance prostate PC-3 cancer cells. Nature of the series: PC-3 flank model of androgen-resistant prostate cancer. The series is classed as in vivo. The conditions noted are these: 2.5 mg/kg or 10 mg/kg, 2-3 times per week for five weeks.
The test system of a further series is Human H460 NSCLC cells. Nature of the series: Oral efficacy in human non-small cell lung cancer xenografts. The series is classed as in vivo, CD1-Nu/Nu female mice. The conditions noted are these: H460 xenograft; oral 100 mg/kg on day 8, 15, 22, 29; vs 5% dextrose or untreated. As for the experimental part:
Human H460 NSCLC cells were obtained from American Type Cell Culture (ATCC) (catalog no. HTB-177, Manassas, Va.). These cells tested negative for viral contamination using the Mouse Antibody Production (MAP) test, performed by Charles River Labs Molecular Division, upon the receipt of the tumor cells from ATCC. The tumor cells were maintained at 37° C. in a humidified 5% CO2 atmosphere in T225 tissue culture flasks containing 50 mL of Roswell Park Memorial Institute (RPMI)-1640 solution with 10% Fetal Bovine Serum (FBS) and 2 mM L-glutamine. Cells were split at a ratio of 1:10 every 2-3 days by trypsinization and resuspended in fresh medium in a new flask. Cells were harvested for experiments in the same way at 70-90% confluency.
CD1-Nu/Nu female mice, ˜4-6 weeks old were obtained from Charles River Laboratories. Mice were housed 5 to a cage in a micro-isolator room in the Department of Animal Laboratory Research of New York State University (SUNY) at Stony Brook. Light-dark cycles were 12 h each daily, with light from 7 a.m. to 7 p.m. […]
An acclimation period of 7 days was allowed between the arrival of the animal at the study site before tumor inoculation and experimentation. […] Tumor dimensions (length and width) were measured daily before, during and after treatment (using Vernier calipers) and the tumor volume was calculated using the prolate ellipsoid formula: (length× width^2)/2. […]
A general note: A xenograft is tissue or cells of one species grown in another, often human tumour cells in immunodeficient mice.

The test system of series [2] is BxPC3 pancreatic cancer cells. Nature of the series: Oral efficacy in human pancreatic cancer xenografts. In kind it is in vivo, CD-1 nude mice. The conditions noted are these: BxPC-3 xenograft; oral dose of 100 mg/week for 4 weeks; vs 5% dextrose or untreated. As for the experimental part:
An acclimation period of 7 days was allowed between the arrival of the animal at the study site before tumor inoculation and experimentation. Mice were inoculated subcutaneously (SC) in the right flank with 2×10^6 human H460 NSCLC or BxPC3 pancreatic cancer cells that were suspended in 0.1 mL of Dulbeco's Phosphate Buffered Salt (PBS) solution using a 1 cc syringe with a 27-5/8 gauge needle. Tumor dimensions (length and width) were measured daily before, during and after treatment (using Vernier calipers) and the tumor volume was calculated using the prolate ellipsoid formula: (length× width^2)/2. Treatment with test or control articles began 8 days post tumor cell implantation when the tumor was approximately 300 mm^3.
A similar study was conducted in CD-1 nude mice (n=9) inoculated with 2×10^6 BxPC-3 cells. The study was initiated when tumors reached an average size of 150 mm^3 (day 0) and CPI-613 was administered at an oral dose of 100 mg/week for 4 weeks. A comparator arm (n=9) was conducted with IP treatment at a weekly dose of 25 mg/kg.

For series [3] the following is noted: Pardee et al., Clin Cancer Res. 2014; cited from earlier work.

As for `O=C(O)CCCCC(CCSCc1ccccc1)SCc1ccccc1` (centres unmarked), the EC50 came to 175 µM in the series with 22RV1; 99 µM with DU 145; 114 µM in the series on LnCap; 202 µM in the series on PC-3; 147 µM in the series with RWPI-1. Also, the Toxicity result in series [1] is “without toxicity”. Further, in series [1] (vs saline control), the “Survival of the mice” value is “increased survival”. In series [1] (vs saline control), the “Tumor growth (tumor volume over time)” value was “significantly slower”. Besides, the Tumor growth entry was “grew much more slowly” with Human H460 NSCLC cells and “especially pronounced” in series [2]. Further, the “half-life after IV dosing” value in series [3] is 1 to 2 h.
